Data from EP0897904B1, “Fungicidal 2-methoxybenzophenones” (BASF AKTIENGESELLSCHAFT, priority 1997, dated 1999).
Where two headings read alike, the source gives them in different places.

Key:
Format in all cases: in vivo
[1] = tested on: Blumeria (Erysiphe) graminis DC. f.sp. hordei E. Marchal; experiment: Zero day protectant test, Barley Powdery Mildew (BPM); conditions: barley variety Golden Promise, 0 day protectant test, side-by-side, technical material in 0.5% acetone 0.05% Tween 20 water
Excerpt: (§1) • (a) Wheat Powdery Mildew (WPM): HOST: Wheat (Triticum aestivum L.) variety Kanzler PATHOGEN: Blumeria (Erysiphe) graminis DC. f.sp. tritici E. Marchal • (b) Barley Powdery Mildew (BPM): HOST: Barley (Hordeum vulgare L.) variety Golden Promise PATHOGEN: Blumeria (Erysiphe) graminis DC. f.sp. hordei E. Marchal
(§2) This test is a zero day protectant test for control of wheat and barley powdery mildews. • 1. Wheat or barley seed (approximately 8-10/pot) is planted in 6 cm diameter plastic pots and maintained in the greenhouse. • 2. When the primary leaf is fully expanded, formulated test compounds are sprayed with a single nozzle overhead track sprayer at a rate of 200 l/ha. Plants are then allowed to air-dry. • 3. Inoculation follows about three hours after compound application. Plants are set up on greenhouse benches with bottom watering mats and inoculated by dusting them with conidia from powdery mildew infected plants (stock cultures at an age of 10-14 days). • 4. Disease on the primary leaf as percent leaf area with disease symptoms/signs is evaluated about 7 days after inoculation. The tips and bases of the leaves are excluded from the evaluation. Percent disease control is then calculated by the following formula: % disease control = 100 -(% infection in treated plants)/(% infection in untreated plants)x 100 [formula]
(§3) • 1. Technical compounds are formulated in a solvent/surfactant system consisting of […] acetone and 0.05% Tween 20 in deionized water. Compounds are dissolved in acetone prior to addition of the water; the Tween 20 can be added through either the acetone or the water. Dilutions are made using the solvent/surfactant system. Test compounds are typically tested over a range of concentrations covering several orders of magnitude and then ED values are calculated for comparison of compounds. Formulated compounds are prepared using deionized water. • 2. Two kinds of controls are included: • Plants treated with the solvent/surfactant solution and inoculated (Solvent Blank). • Untreated plants which are inoculated (Inoculated Control).
(§4) Compounds applied as technical material formulated in 0.5% acetone 0.05% Tween 20 water

[2] = tested on: Blumeria (Erysiphe) graminis DC. f.sp. tritici E. Marchal; experiment: Zero day protectant test, Wheat Powdery Mildew (WPM); conditions: wheat variety Kanzler, 0 day protectant test, side-by-side, technical material in 0.5% acetone 0.05% Tween 20 water
Excerpt: as §1, §2, §3, §4

[3] = tested on: Erysiphe cichoracearum DC; experiment: Curative and residual control test, Cucumber Powdery Mildew (QPM); conditions: Golovinomyces cichoracearum, 72 h, read-out: Disease control (% efficacy); for Emax at 12.5 ppm: QPM 3 da R (3 day residual), 12,5 ppm; for Emax at 125 ppm / Emax at 1250 ppm: QPM 3 da R (3 day residual)
Excerpt: (§5) • (a) Wheat Powdery Mildew (WPM): HOST: Wheat (Triticum aestivum L.) variety Kanzler PATHOGEN: Blumeria (Erysiphe) graminis DC. f.sp. tritici E. Marchal • (b) Cucumber Powdery Mildew (QPM): HOST: Cucumber (Cucumis sativus L.) variety Bush pickle PATHOGEN: Erysiphe cichoracearum DC
(§6) This test procedure is for curative and residual control of powdery mildew diseases. • 1. Wheat seed (approximately 8-10/pot) or cucumber seed (1 seed / pot) is planted in 6 cm diameter plastic pots and maintained in the greenhouse. • 2. When the primary leaf (wheat) or the cotyledons (cucumber) is/are fully expanded, formulated test compounds are sprayed with a single nozzle overhead track sprayer at a rate of 200 l/ha. Plants are then allowed to air-dry. • 3. Inoculation precedes treatment by 2 or 3 days in the case of curative evaluations and follows treatment by 3 or 4 days in case of residual evaluations. For inoculation, plants are set up on greenhouse benches with bottom watering mats and inoculated by dusting them with conidia from powdery mildew infected plants (stock cultures at an age of 10-14 days). Between inoculation and treatment for curative evaluations and between treatment and inoculation for residual evaluations, plants are maintained in the greenhouse with bottom watering. • 4. Disease on the primary leaf (wheat) or on the cotyledons (cucumber) as percent leaf area with disease symptoms/signs is evaluated about 7 days after inoculation. In the case of wheat, the tips and bases of the leaves are excluded from the evaluation. Percent disease control is then calculated by the following formula: % disease control = 100 -(% infection in treated plants)/(% infection in untreated plants)x 100 [formula]
as §3, with “system.” for “system. Test compounds are typically tested over a range of concentrations covering several orders of magnitude and then ED values are calculated for comparison of compounds.”

[4] = tested on: Blumeria (Erysiphe) graminis DC. f.sp. tritici E. Marchal; experiment: Curative and residual control test, Wheat Powdery Mildew (WPM); conditions: read-out: Disease control (% efficacy)
Excerpt: as §5, §6
as §3, with “system.” for “system. Test compounds are typically tested over a range of concentrations covering several orders of magnitude and then ED values are calculated for comparison of compounds.”

[5] = 48 h, WPM 2 da C (2 day curative), 12,5 ppm, Test B
[6] = 48 h, WPM 2 da C (2 day curative), 125 ppm, Test B
[7] = 48 h, WPM 2 da C (2 day curative), 1250 ppm, Test B
[8] = 72 h, WPM 3 da R (3 day residual), 12,5 ppm, Test B
[9] = 72 h, WPM 3 da R (3 day residual), 125 ppm, Test B
[10] = 72 h, WPM 3 da R (3 day residual), 1250 ppm, Test B
[11] = 72 h, WPM 3 da C (3 day curative)
[12] = 72 h, WPM 3 da C (3 day curative), 125 ppm
[13] = 96 h, WPM 4 da R (4 day residual)
[14] = 96 h, WPM 4 da R (4 day residual), 125 ppm

Row | SMILES | ED90 (ppm) [1] [ppm] | ED90 (ppm) [2] [ppm] | Emax at 12.5 ppm ([3]; Test B) [%] | Emax at 125 ppm ([3]; Test B) [%] | Emax at 1250 ppm ([3]; Test B) [%] | percent disease control at 12.5 ppm [4, 8] [%] | percent disease control at 125 ppm [4, 9] [%] | percent disease control at 1250 ppm [4, 10] [%] | percent disease control at 0.2 ppm [4, 11] [%] | percent disease control at 1 ppm [4, 11] [%] | percent disease control at 5 ppm [4, 11] [%] | percent disease control at 25 ppm [4, 11] [%] | percent disease control at 125 ppm [4, 12] [%] | percent disease control at 0.2 ppm [4, 13] [%] | percent disease control at 1 ppm [4, 13] [%] | percent disease control at 5 ppm [4, 13] [%] | percent disease control at 25 ppm [4, 13] [%] | percent disease control at 125 ppm [4, 14] [%] | further results
1 | COc1cc(C)c(C(=O)c2c(OC)ccc(Br)c2Cl)c(OC)c1OC [Example 4, 5-bromo-6-chloro-6'-methyl-2,2',3',4'-tetramethoxy-benzophenone] | 7 | 5 | 8 | 97 | 100 | 99 | 100 | 100 |  |  |  |  |  |  |  |  |  |  | percent disease control at 12.5 ppm [4, 5]: 55%; percent disease control at 125 ppm [4, 6]: 71%; percent disease control at 1250 ppm [4, 7]: 61%
2 | COc1cc(C)c(C(=O)c2c(OC)ccc(Br)c2C)c(OC)c1OC [Example 6, 5-bromo-6,6'-dimethyl-2,2',3',4'-tetramethoxy-benzophenone] | 0.9 | 0.1 | 35 | 92 | 100 | 100 | 100 | 100 | 17 | 27 | 43 | 60 | 64 | 58 | 90 | 100 | 100 | 100 | Emax at 12.5 ppm ([3]; Test A): 2%; Emax at 125 ppm ([3]; Test A): 92%; Emax at 1250 ppm ([3]; Test A): 100%; percent disease control at 12.5 ppm ([4]; 48 h, WPM 2 da C (2 day curative), 12,5 ppm, Test A): 90%; Emax at 12.5 ppm [4, 5]: 61%; percent disease control at 125 ppm ([4]; 48 h, WPM 2 da C (2 day curative), 125 ppm, Test A): 95%; Emax at 125 ppm [4, 6]: 89%; percent disease control at 1250 ppm ([4]; 48 h, WPM 2 da C (2 day curative), 1250 ppm, Test A): 98%; Emax at 1250 ppm [4, 7]: 87%; percent disease control at 12.5 ppm ([4]; 72 h, WPM 3 da R (3 day residual), 12,5 ppm, Test A): 100%; percent disease control at 125 ppm ([4]; 72 h, WPM 3 da R (3 day residual), 125 ppm, Test A): 100%; percent disease control at 1250 ppm ([4]; 72 h, WPM 3 da R (3 day residual), 1250 ppm, Test A): 100%
3 | COc1cc(C)c(C(=O)c2c(OC)ccc(C(F)(F)F)c2C)c(OC)c1OC [Example 64, 6,6'-dimethyl-2,2',3',4'-tetramethoxy-5-trifluoromethyl-benzophenone] |  |  |  |  |  |  |  |  | 10 | 37 | 48 | 60 | 72 | 51 | 89 | 99 | 100 | 100 | 
4 | COc1cc(C)c(C(=O)c2c(OC)cccc2C(F)(F)F)c(OC)c1OC [Example 65, 6'-methyl-2,2',3',4'-tetramethoxy-6-trifluoromethyl-benzophenone] |  |  |  |  |  |  |  |  | 10 | 23 | 23 | 48 | 58 | 25 | 50 | 93 | 99 | 100 | 
5 | Fc1ccc(Oc2ccnc3cc(Cl)cc(Cl)c23)cc1 [Quinoxyfen, reference compound] | 26 | 12 |  |  |  |  |  |  |  |  |  |  |  |  |  |  |  |  | 
